Source: ChEMBL document CHEMBL4229325, “Angiogenesis and cancer stem cells: New perspectives on therapy of ovarian cancer” (Eur J Med Chem, 2017)

Key:
OVCAR-8 [1] = experiment: Cytotoxicity against human OVCAR8 cells assessed as cell viability level at 4 uM incubated for 72 hrs by MTT assay; format: functional
OVCAR-8 [2] = experiment: Cytotoxicity against human OVCAR8 cells assessed as cell viability level at 8 uM incubated for 72 hrs by MTT assay; format: functional
2008 [3] = experiment: Cytotoxicity against human OV2008 cells assessed as reduction in cell viability incubated for 24 hrs by MTT assay; format: functional, cell-based; conditions: Homo sapiens, 2008, 24 h
2008 [4] = experiment: Cytotoxicity against human OV2008 cells assessed as reduction in cell viability incubated for 48 hrs by MTT assay; format: functional, cell-based; conditions: Homo sapiens, 2008, 48 h
2008 [5] = experiment: Cytotoxicity against human OV2008 cells assessed as reduction in cell viability incubated for 72 hrs by MTT assay; format: functional, cell-based; conditions: Homo sapiens, 2008, 72 h
[6] = Growth inhibition of human ovarian epithelial cancer cells at 0.5 uM in presence of 20 nM PTX; format: functional
[7] = Growth inhibition of human ovarian cancer stem cells at 0.5 uM in presence of 20 nM PTX; format: functional
[8] = Cytotoxicity against human A2780/DX cells assessed as cell viability at 4 uM incubated for 72 hrs by MTT assay; format: functional; conditions: read-out: Activity
NCI/ADR-RES [9] = experiment: Cytotoxicity against human NCI-ADR-RES cells assessed as cell viability at 4 uM incubated for 72 hrs by MTT assay; format: functional; conditions: read-out: Activity
[10] = Cytotoxicity against human A2780/DX cells assessed as cell viability at 8 uM incubated for 72 hrs by MTT assay; format: functional; conditions: read-out: Activity
NCI/ADR-RES [11] = experiment: Cytotoxicity against human NCI-ADR-RES cells assessed as cell viability at 8 uM incubated for 72 hrs by MTT assay; format: functional; conditions: read-out: Activity
[12] = Cytotoxicity against human A2780cis cells assessed as cell viability at 8 uM incubated for 72 hrs by MTT assay; format: functional; conditions: read-out: Activity
C13 = experiment: Antitumor activity against human C13 cells xenografted in mouse assessed as tumor volume at 5 mg/kg, ip dosed every other day for 3 weeks and measured every two days (reference value: 252.5 +/- 63.4 mm3); format: functional

Compound CC[C@@H](C(=O)[C@@H](C)[C@@H](O)[C@H](C)[C@@H]1O[C@@H]([C@@H](CC)C(=O)O)CC[C@@H]1C)[C@H]1O[C@]2(C=C[C@@H](O)[C@]3(CC[C@@](C)([C@H]4CC[C@](O)(CC)[C@H](C)O4)O3)O2)[C@H](C)C[C@@H]1C [SALINOMYCIN] has an Activity (OVCAR-8 [1]) of 53%, an Activity (OVCAR-8 [2]) of 45% and an IC50 2008 [3] of 7.44 µM. For the same compound, the IC50 2008 [4] was 4.78 µM, the IC50 2008 [5] was 3.2 µM and the “growth inhibition (GI)” value [6] was 58%. The “growth inhibition (GI)” value [7] was 59%, the viability at 4 µM [8] was 50% and the viability at 4 µM (NCI/ADR-RES [9]) was 50%. For the same compound, the viability at 8 µM [10] was 43%, the viability at 8 µM (NCI/ADR-RES [11]) was 37% and the viability at 8 µM [12] was 55%. For the same compound, the Activity (C13) was 84.2 mm3.
